{"source": "patent US20240299353A1", "about": "“COMPOSITIONS AND METHODS FOR TREATING […] 5-MEO-DMT” (Alvarius Pharmaceuticals Ltd., priority 2021, published 2024)", "key": {"ΔFosB": {"tested_on": "ΔFosB", "assay": "Western blot of ΔFosB in brain regions, chronic cocaine ± 5-MeO-DMT", "format": "in vivo, Male Wistar rats", "description": "(§1) Male Wistar rats aged 7 weeks were acclimatized to the facility for 1 week prior to the beginning of the study. […] Animals were euthanized 23- or 119-hours following vehicle or 5-MeO-DMT administration.\n(§2) Following euthanasia brain regions of interest were isolated. Briefly, the olfactory bulbs were removed before the brain was placed in a rat brain matrix (FIG. 2A). Sterile blades were inserted at positions 2 and 3 (FIG. 2B) to extract a coronal slice containing the Bregma+˜0.2-+˜2.2 coordinates (FIG. 2C). From this tissue slice a blunted 12 G needle was used to punch dissect the NAc and dorsal striatum (DS) (FIG. 2D-2E) identified using the rat brain atlas (Panxinos and Watson 2nd edition). The PFC, hippocampus (Hip) and amygdala (Amyg) were then blunt dissected (FIG. 3A-3D). All regions were frozen in liquid nitrogen and stored at −80° C. until processed.\n(§3) These treatment groups were used for the molecular assessment of addiction-linked markers.\n(§4) Determination of protein concentration—a bicinchoninic acid assay (BCA, ThermoFisher) was conducted to determine the total protein concentration in tissue lysates following manufacturer's instructions. Briefly, bovine serum albumin (BSA) standards were prepared in a serial dilution (0-2.0 mg protein/ml) and 200 μl working reagent (50:1, reagent A: reagent B) was added to each of the standards and samples in a 96 well plate (Greiner). For tissue lysates a 1:10 dilution was performed with cell lysis buffer to ensure absorbance values lay within the working range established by the standards. All samples and standards were added in duplicate. The plate was covered and incubated for 30 mins at 37° C. before absorbance was read at 562 nm on a plate reader (SpectraMax M3). The absorbance values were used to form a standard curve of known protein concentrations and protein concentration of samples were derived using the equation of the line. All samples were standardized to the lowest protein concentration using distilled H20 (dH2O).\n(§5) SDS-PAGE and Western Blotting—Following equalisation of protein concentrations, 6× sample loading buffer (15% SDS, 15% […], 50% glycerol, 0.01% bromophenol blue, […]) was added to each sample using a dilution factor of 1:5 of the total volumes before boiling at 100° C. for 5 mins. Samples were stored at −20° C. until use. One dimensional sodium-dodecyl-sulphate polyacrylamide gel electrophoresis (SDS-PAGE) was used for protein separation based on molecular weight. The percentage of acrylamide in the resolving or stacking gel was determined by the molecular weight of the protein of interest. In this instance all gels consisted of a 5% stacking gel and a 10% resolving gel with the exception of mGluR5, G9a (8%) and H3K9Me2 (12%). 20 μg of protein was loaded and resolved using SDS-PAGE. Gel electrophoresis was conducted at 80V while the protein was in the stacking gel, once it migrated to the resolving gel the voltage was increased to 120V and ran for 90 mins. Samples were transferred to a 0.45 μm polyvinylidene difluoride (PVDF) membrane (Analab) for 1 hour at 100V and blocked in 5% milk blocking solution made in tris-buffered saline containing tween®-20 (TBS-T, Sigma) for 90 mins. Primary antibodies (FIG. 5) were diluted in 5% BSA in TBS-T and incubated with membranes overnight at 4° C. or for 2 hours at room temperature. After incubation with primary antibodies the membranes were washed in TBS-T for 4×10 minutes before incubation with 1:2000 anti-rabbit and 1:2000 anti-mouse Alexa Fluro® conjugated secondary antibodies (Invitrogen) in 2% milk for 1 hour at room temperature. Membranes were washed in TBS-T for 4×10 minutes and in TBS for 1×10-minute wash. Proteins were visualized using Odyssey® infrared imaging system. Protein expression was quantified using Image Studio Lite (Version 5.2) and expression intensities were normalized to a house keeping protein, α-Tubulin or β-actin."}, "BDNF": {"tested_on": "BDNF", "assay": "Western blot of BDNF in brain regions, chronic cocaine ± 5-MeO-DMT", "format": "in vivo, Male Wistar rats", "conditions": "for BDNF expression: 24 h; for BDNF levels: 120 h", "description": "as §1, §2, §3, §4, §5"}, "[1]": {"conditions": "cited from earlier work"}, "5-HT2AR": {"molecular_target": "5-HT2AR (Rattus norvegicus, UniProt P14842)", "sequence (P14842 whole entry)": "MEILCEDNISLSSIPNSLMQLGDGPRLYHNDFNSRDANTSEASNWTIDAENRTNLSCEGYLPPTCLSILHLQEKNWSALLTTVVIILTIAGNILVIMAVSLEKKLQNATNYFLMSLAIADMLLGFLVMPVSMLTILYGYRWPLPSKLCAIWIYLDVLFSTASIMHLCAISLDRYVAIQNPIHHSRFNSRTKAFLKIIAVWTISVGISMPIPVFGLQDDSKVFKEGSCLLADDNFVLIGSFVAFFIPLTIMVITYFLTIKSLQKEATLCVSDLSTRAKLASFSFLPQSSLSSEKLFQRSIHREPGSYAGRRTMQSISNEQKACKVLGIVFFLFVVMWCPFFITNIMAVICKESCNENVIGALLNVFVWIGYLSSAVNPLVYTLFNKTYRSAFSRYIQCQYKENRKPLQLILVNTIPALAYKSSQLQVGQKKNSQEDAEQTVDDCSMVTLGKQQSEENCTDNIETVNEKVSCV", "conditions": "read-out: Ki for the 5-HT2AR; non-canonical signaling, liberation of arachidonic acid; cited from earlier work"}, "[2]": {"conditions": "humans, following insufflation; cited from earlier work"}, "[3]": {"tested_on": "MAO-A and cytochrome P450 2D6 (CYP2D6)", "conditions": "cited from earlier work"}, "pCREB": {"tested_on": "pCREB", "assay": "Western blot of pCREB in brain regions, chronic cocaine ± 5-MeO-DMT", "format": "in vivo, Male Wistar rats", "conditions": "for pCREB levels: 24 h", "description": "as §1, §2, §3, §4\nSDS-PAGE and Western Blotting—Following equalisation of protein concentrations, 6× sample loading buffer (15% SDS, 15% […], 50% glycerol, 0.01% bromophenol blue, […]) was added to each sample using a dilution factor of 1:5 of the total volumes before boiling at 100° C. for 5 mins. Samples were stored at −20° C. until use. One dimensional sodium-dodecyl-sulphate polyacrylamide gel electrophoresis (SDS-PAGE) was used for protein separation based on molecular weight. The percentage of acrylamide in the resolving or stacking gel was determined by the molecular weight of the protein of interest. […] Protein expression was quantified using Image Studio Lite (Version 5.2) and expression intensities were normalized to a house keeping protein, α-Tubulin or β-actin."}, "mGluR5": {"tested_on": "mGluR5", "assay": "Western blot of mGluR5 in brain regions, chronic cocaine ± 5-MeO-DMT", "format": "in vivo, Male Wistar rats", "description": "as §1\nFollowing euthanasia brain regions of interest were isolated. Briefly, the olfactory bulbs were removed before the brain was placed in a rat brain matrix (FIG. 2A). Sterile blades were inserted at positions 2 and 3 (FIG. 2B) to extract a coronal slice containing the Bregma+˜0.2-+˜2.2 coordinates (FIG. 2C). From this tissue slice a blunted 12 G needle was used to punch dissect the NAc and dorsal striatum (DS) (FIG. 2D-2E) identified using the rat brain atlas (Panxinos and Watson 2nd edition). […]\nDetermination of protein concentration—a bicinchoninic acid assay (BCA, ThermoFisher) was conducted to determine the total protein concentration in tissue lysates following manufacturer's instructions. […] For tissue lysates a 1:10 dilution was performed with cell lysis buffer to ensure absorbance values lay within the working range established by the standards. […] The plate was covered and incubated for 30 mins at 37° C. before absorbance was read at 562 nm on a plate reader (SpectraMax M3). The absorbance values were used to form a standard curve of known protein concentrations and protein concentration of samples were derived using the equation of the line. […]"}}, "data": [{"smiles": "COc1ccc2[nH]cc(CCN(C)C)c2c1", "note": "[5-MeO-DMT, 5-methoxy-N,N-dimethyltryptamine]", "values": [{"measurement": "ΔFosB expression", "setting": "ΔFosB; PFC, 24 h, cocaine alone or 5-MeO-DMT alone", "result": "Neither treatment changes expression alone"}, {"measurement": "ΔFosB expression", "setting": "ΔFosB; PFC, 24 h, cocaine+10 mg/kg 5-MeO-DMT", "result": "increases expression relative to 10 mg/kg 5-MeO-DMT alone"}, {"measurement": "ΔFosB expression", "setting": "ΔFosB; PFC, 24 h, cocaine+20 mg/kg 5-MeO-DMT (increase seen with 10 mg/kg)", "result": "not replicated"}, {"measurement": "ΔFosB expression", "setting": "ΔFosB; amygdala, 24 h, 5-MeO-DMT alone", "result": "no effect"}, {"measurement": "ΔFosB expression", "setting": "ΔFosB; amygdala, 24 h, cocaine+20 mg/kg 5-MeO-DMT", "result": "normalized levels in the cocaine treated animals comparable to the control group"}, {"measurement": "ΔFosB expression", "setting": "ΔFosB; amygdala, 120 h, 20 mg/kg 5-MeO-DMT relative to control", "result": "dose-dependent increase"}, {"measurement": "ΔFosB expression", "setting": "ΔFosB; dorsal striatum, 24 h, 5-MeO-DMT alone", "result": "does not regulate the expression"}, {"measurement": "ΔFosB expression", "setting": "ΔFosB; dorsal striatum, 24 h, cocaine+10 mg/kg 5-MeO-DMT relative to control", "result": "significant increase in ΔFosB expression"}, {"measurement": "ΔFosB expression", "setting": "ΔFosB; dorsal striatum, 24 h, cocaine+20 mg/kg 5-MeO-DMT", "result": "returns the cocaine-induced increase in ΔFosB to levels comparable with control"}, {"measurement": "ΔFosB expression", "setting": "ΔFosB; dorsal striatum, 120 h, irrespective of the treatment group", "result": "no change in expression levels"}, {"measurement": "ΔFosB expression", "setting": "ΔFosB; nucleus accumbens, 24 h, cocaine+20 mg/kg 5-MeO-DMT", "result": "expression levels remain elevated in the combo group relative to control"}, {"measurement": "ΔFosB expression", "setting": "ΔFosB; nucleus accumbens, 24 h, saline+10 mg/kg 5-MeO-DMT", "result": "increased"}, {"measurement": "ΔFosB expression", "setting": "ΔFosB; nucleus accumbens, 24 h, saline+20 mg/kg 5-MeO-DMT", "result": "increased"}, {"measurement": "ΔFosB expression", "setting": "ΔFosB; nucleus accumbens, 120 h, 5-MeO-DMT alone", "result": "does not persist to 120 hours"}, {"measurement": "BDNF expression", "setting": "BDNF; PFC, cocaine+10 mg/kg 5-MeO-DMT relative to saline+vehicle", "result": "significant decrease in BDNF expression"}, {"measurement": "BDNF expression", "setting": "BDNF; PFC, cocaine+20 mg/kg 5-MeO-DMT relative to saline+vehicle", "result": "significant decrease in BDNF expression"}, {"measurement": "BDNF expression", "setting": "BDNF; hippocampus, any of the treatment groups", "result": "no change in BDNF expression"}, {"measurement": "BDNF levels", "setting": "BDNF; hippocampus, 10 mg/kg 5-MeO-DMT alone", "result": "no effect alone"}, {"measurement": "BDNF levels", "setting": "BDNF; hippocampus, 20 mg/kg 5-MeO-DMT alone", "result": "significant decrease in BDNF levels"}, {"measurement": "BDNF levels", "setting": "BDNF; hippocampus, cocaine+10 mg/kg 5-MeO-DMT", "result": "does not affect the cocaine-induced decrease in expression levels"}, {"measurement": "BDNF levels", "setting": "BDNF; hippocampus, cocaine+20 mg/kg 5-MeO-DMT", "result": "restores BDNF levels to those seen in the control group"}, {"measurement": "blood-brain barrier passage", "setting": "[1]; rat brain regions", "result": "readily crosses the blood-brain barrier"}, {"measurement": "brain drug concentrations with increase in dose", "setting": "[1]; throughout the brain", "result": "increased non-proportionally"}, {"measurement": "Ki", "setting": "5-HT2AR", "result": 190, "unit": "nM"}, {"measurement": "end of effects", "setting": "[2]", "result": "60 to 70", "unit": "min"}, {"measurement": "peak of effects", "setting": "[2]", "result": "35 to 40", "unit": "min"}, {"measurement": "start of effects", "setting": "[2]", "result": "3 to 4", "unit": "min"}, {"measurement": "primary metabolic pathways", "setting": "[3]", "result": "deamination by MAO-A and O-demethylation by cytochrome P450 2D6 (CYP2D6)"}, {"measurement": "pCREB levels", "setting": "pCREB; PFC, cocaine+20 mg/kg 5-MeO-DMT relative to saline+20 mg/kg", "result": "decrease in pCREB"}, {"measurement": "proportion of pCREB relative to total CREB", "setting": "pCREB; PFC, 24 h and 120 h, all treatments", "result": "no change"}, {"measurement": "pCREB levels", "setting": "pCREB; amygdala, 20 mg/kg 5-MeO-DMT in saline-treated animals", "result": "increased"}, {"measurement": "proportion of pCREB", "setting": "pCREB; amygdala, 24 h and 120 h, any of the treatments", "result": "unchanged by any of the treatments"}, {"measurement": "mGluR5 expression", "setting": "mGluR5; PFC, 24 h, 20 mg/kg 5-MeO-DMT in saline treated animals", "result": "significant decrease in receptor expression"}, {"measurement": "mGluR5 expression", "setting": "mGluR5; nucleus accumbens, 5-MeO-DMT, either tested concentration", "result": "no change"}]}]}
